We go through 13 compounds from patent US20240245617A1, “LIPID-BASED TOPICAL INJECTION FORMULATIONS” (Beijing Jitai Pharmaceutical Technology Co., Ltd., priority 2022, published 2024).

The nature of series [1]: Encapsulation efficiency of lipid nanoparticles, Quant-it RiboGreen RNA Assay. Type of series: physicochemical. The settings on record: LNP ionizable lipid/cholesterol/DSPC/DMG-PEG2000 50/38.5/10/1.5 mol%, N/P 6, luciferase mRNA. On the procedure:
(§1) The particle size and particle size dispersity index (polydispersity index, PDI) of the prepared lipid nanoparticles were measured using a Zetasizer Pro (purchased from Malvern Instruments Ltd) and a DynaPro NanoStar (purchased from Wyatt) dynamic light scattering instrument. The degree of RNA encapsulation by lipid nanoparticles was characterized by the Encapsulation Efficiency %, which reflects the degree of binding of lipid nanoparticles to RNA fragments. This parameter was measured by the method of Quant-it™ RiboGreen RNA Assay (purchased from Invitrogen). Lipid nanoparticle samples were diluted in TE buffer (10 mM Tris-HCl, 1 mM EDTA, pH=7.5). A portion of the sample solution was removed, to which 0.5% Triton (Triton X-100) was added, and then allowed to stand at […] for 30 minutes. Immediately after the addition of RIBOGREEN® reaction solution, the fluorescence values were read on a Varioskan LUX multifunctional microplate reader (purchased from Thermofisher) at 485 nm for absorption and 528 nm for emission to give the encapsulation efficiency values.
The produced lipid nanoparticles were characterized using the same method as in Assay example 2, and the results are shown in Table 6 (the percentage content of each component is represented by molar percentage).

Series [2] is described as follows: Particle size and PDI of lipid nanoparticles by dynamic light scattering. Type of series: physicochemical. As to conditions: LNP ionizable lipid/cholesterol/DSPC/DMG-PEG2000 50/38.5/10/1.5 mol%, N/P 6, luciferase mRNA. On the procedure: as §1
The preparation of lipid nanoparticles includes microfluidic mixing system, but is not limited to this method, which also includes T-type mixer and ethanol injection method, etc.

A further series deals with C57BL/6 mice. In words: In vivo bioluminescence after intravenous administration of lipid nanoparticles encapsulating luciferase mRNA. The settings on record: 0.5 mg/kg mRNA, liver. On the procedure:
The delivery effect and safety of nanoparticles encapsulating luciferase mRNA (Trilink, L-7202) in mice were evaluated. The test mice were SPF-grade C57BL/6 mice, female, 6-8 weeks old, weighing 18-22 g, and were purchased from SPF (Beijing) Biotechnology Co., Ltd. All animals were acclimatized for more than 7 days prior to the experiment, and had free access to food and water during the experiment. The conditions include alternating light and dark for 12/12 h, the indoor temperature of 20-26° C. and the humidity of 40-70%. The mice were randomly grouped. The lipid nanoparticles encapsulating luciferase mRNA prepared above were injected into mice by intravenous administration at a single dose of 0.5 mg/kg mRNA, and the mice were subjected to in vivo bioluminescence assay using a Small Animal In Vivo Imaging System (IVIS LUMINA III, purchased from PerkinElmer) at 6 h after administration. The assay was performed as follows: D-luciferin solution was prepared in saline at a concentration of 15 mg/mL, and each mouse was given the substrate by intraperitoneal injection. At ten minutes after administration of the substrate, the mice were anesthetized in an anesthesia chamber with isoflurane at a concentration of 2.5%. […] Data acquisition and analysis were performed on the liver.
The in vivo delivery efficiency of lipid nanoparticle carriers was expressed as the mean values of fluorescence intensity and total photon count in different animals within the same subject group, as shown in Table 4. Higher values of fluorescence intensity and total photon count indicate higher in vivo delivery efficiency of this mRNA fragment by lipid nanoparticles. The lipid nanoparticles containing the cationic lipids of the present disclosure have good in vivo delivery efficiency and mainly target the liver.

Consider `CCCC/C=C\CCCCOC(=O)C(C)(C)CCCCCC(CCCCCC(C)(C)C(=O)OCCCC/C=C\CCCC)OC(=O)CCCN(C)C` [Compound 28], for which, in series [1], the “Encapsulation efficiency (%)” value came to 80.36%. For the same compound, in series [2], the “Particle size (nm)” value stood at 138.16 nm and the “Particle size dispersity (PDI)” value is listed as 0.06. Further, the “Total photon count in vivo at 6 hours after administration (Total Flux)” value (from here on “Total photon count in vivo at 6 hours”) in the series with C57BL/6 mice was determined as 3.21E+09. In the case of `CCCCC(CC#CCOC(=O)C(C)(C)CCCCCC(CCCCCC(C)(C)C(=O)OCC#CCC(CCCC)CCCC)OC(=O)CCCN(C)C)CCCC` [Compound 117], in the series on C57BL/6 mice, the “Total photon count in vivo at 6 hours” value is listed as 4.48E+09. The same measure, in the same setting: the result for `CCCCCCCCCOC(=O)C(C)(C)CCCCCC(CCCCCC(C)(C)C(=O)OCC#CC(CCCCCC)CCCCCC)OC(=O)CCCN(C)C` (stereo not shown) [Compound 118] reads 3.14E+10. `CCCCCCCCCSC(=O)C(C)(C)CCCCCC(CCCCCC(C)(C)C(=O)OCC#CC(CCCC)CCCC)OC(=O)CCCN(C)C` (stereo not shown) [Compound 119]: the “Encapsulation efficiency (%)” value in series [1] is 86.92%. In series [2], the “Particle size (nm)” value is recorded as 80.98 nm and the “Particle size dispersity (PDI)” value is given as 0.05. Further, the “Total photon count in vivo at 6 hours” value with C57BL/6 mice was 3.25E+10.

Turning to `CCCCCCCCCSC(=O)C(C)(C)CCCCCC(CCCCCC(C)(C)C(=O)OCC#CCC(CCCC)CCCC)OC(=O)CCCN(C)C` (stereo not shown) [Compound 121], the “Encapsulation efficiency (%)” value in series [1] worked out at 93.62%. Besides, in series [2], the “Particle size (nm)” value was 103.57 nm and the “Particle size dispersity (PDI)” value turned out to be 0.06. The “Total photon count in vivo at 6 hours” value with C57BL/6 mice is on record as greater than 4.00E+10.

For the compound `CCCCCCCCCOC(=O)C(C)(C)CCCCC(CCCCC(C)(C)C(=O)OCC(CCCCC)CCCCCCC)OC(=O)CCCN(C)C` (stereo not shown) [Compound 122], the “Total photon count in vivo at 6 hours” value with C57BL/6 mice is listed as greater than 4.00E+10. For `CCCCCCCCCCOC(=O)C(C)(C)CCCCC(CCCCC(C)(C)C(=O)OCC(CCCCC)CCCCCCC)OC(=O)CCCN(C)C` (stereo not shown) [Compound 123], the “Total photon count in vivo at 6 hours” value in the series with C57BL/6 mice is on record as greater than 4.00E+10. For the compound `CCCCCCCCCOC(=O)C(C)(C)CCCCCCC(CCCCCCC(C)(C)C(=O)OCC(CCCCC)CCCCCCC)OC(=O)CCCN(C)C` (stereo not shown) [Compound 125], the “Total photon count in vivo at 6 hours” value in the series on C57BL/6 mice amounted to 1.99E+10. For the compound `CCCCCCCCCOC(=O)C(C)(C)CCCCCCC(CCCCCCC(C)(C)C(=O)OCC(CCCCC)CCCCCCC)OC(=O)CCCCN(C)C` (stereo not shown) [Compound 126], the “Total photon count in vivo at 6 hours” value in the series on C57BL/6 mice turned out to be 1.77E+10. The same measure, in the same setting: the result for `CCCCCCC(CCCCCC)CCOC(=O)CCC(C)(C)CCCC(CCCC(C)(C)CCC(=O)OCCC(CCCCCC)CCCCCC)OC(=O)CCCN(C)C` [Compound 128] reads 1.00E+10; that for `CCCCCCCC(CCCCCCC)COC(=O)CCC(C)(C)CCCC(CCCC(C)(C)CCC(=O)OCC(CCCCCCC)CCCCCCC)OC(=O)CCCN(C)C` [Compound 129], 7.82E+09. The same measure, in the same setting: the result for `CCCCCCCCCOC(=O)CCCCCCC(CCCCCCC(=O)OCCCCCCCCC)OC(=O)CCCN(C)C` [Compound 130] reads 4.45E+07.

Consider `CCCCCCCCCOC(=O)CCCCCCC(CCCCCCC(=O)OCC(CCCCC)CCCCCCC)OC(=O)CCCN(C)C` (stereo not shown) [Compound 131], for which the “Total photon count in vivo at 6 hours” value in the series on C57BL/6 mice is recorded as 1.57E+09.
